From patent US20200361871A1 (Enterprise Therapeutics Ltd., priority 2018, published 2020)

Target: human TMEM16A (TMEM16Aabc variant) (Homo sapiens, UniProt Q5XXA6, DEL476-501, form not given)
Assay: Automated whole-cell patch clamp (Qpatch) TMEM16A potentiator assay in FRT cells stably expressing human TMEM16A
Type: cell-based
Conditions: for % Potentiation @ 3.33 μM Avg: 3.33 μM solution of test compound, percentage increase of baseline TMEM16A current; for EC50: calculated EC50, Qpatch TMEM16A current at +70 mV
Outline: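 FRT cells stably expressing human TMEM16Aabc were recorded by automated whole-cell patch clamp, with intracellular Ca2+ buffered for ~EC20 activation, holding −70 mV and step to +70 mV at 0.05 Hz. Compound was applied cumulatively, 5 min per concentration. Peak current increase as % of baseline was fitted to give EC50 and maximum efficacy.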

human TMEM16A (TMEM16Aabc variant), sequence (Q5XXA6 with tags, fused parts or gaps DEL476-501): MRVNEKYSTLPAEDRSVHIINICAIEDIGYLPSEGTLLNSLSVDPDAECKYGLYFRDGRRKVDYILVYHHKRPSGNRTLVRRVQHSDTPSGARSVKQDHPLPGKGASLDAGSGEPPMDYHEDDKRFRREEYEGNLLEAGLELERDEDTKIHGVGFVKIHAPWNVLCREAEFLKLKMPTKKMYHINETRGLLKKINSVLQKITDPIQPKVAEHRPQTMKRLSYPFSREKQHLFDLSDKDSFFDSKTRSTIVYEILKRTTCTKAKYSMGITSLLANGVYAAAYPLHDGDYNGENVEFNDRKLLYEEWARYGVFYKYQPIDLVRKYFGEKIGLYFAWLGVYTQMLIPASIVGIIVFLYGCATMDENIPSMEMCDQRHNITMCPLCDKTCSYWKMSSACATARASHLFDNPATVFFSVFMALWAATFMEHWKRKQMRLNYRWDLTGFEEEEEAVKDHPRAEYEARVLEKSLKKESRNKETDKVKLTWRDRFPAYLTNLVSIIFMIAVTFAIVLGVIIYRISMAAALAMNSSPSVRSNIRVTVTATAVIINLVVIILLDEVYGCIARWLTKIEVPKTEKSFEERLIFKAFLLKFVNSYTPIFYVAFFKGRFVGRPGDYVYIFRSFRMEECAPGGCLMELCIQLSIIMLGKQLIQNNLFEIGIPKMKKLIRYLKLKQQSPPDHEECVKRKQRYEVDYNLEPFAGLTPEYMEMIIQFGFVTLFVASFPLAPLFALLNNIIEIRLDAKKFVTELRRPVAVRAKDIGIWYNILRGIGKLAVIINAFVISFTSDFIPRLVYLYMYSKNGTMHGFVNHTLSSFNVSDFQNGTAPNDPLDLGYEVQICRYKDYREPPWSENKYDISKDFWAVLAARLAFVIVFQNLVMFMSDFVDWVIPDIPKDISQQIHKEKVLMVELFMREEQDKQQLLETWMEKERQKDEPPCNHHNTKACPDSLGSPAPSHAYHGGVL

SMILES | % Potentiation @ 3.33 μM Avg [%] | EC50 [nM]
COc1ccc(CNC(=O)c2cc(NC(=O)Cc3cc(Cl)ccc3O)ccn2)nc1 [Example 35.12, 4-[[2-(5-Chloro-2-hydroxy-phenyl)acetyl]amino]-N-[(5-methoxy-2-pyridyl)methyl]pyridine-2-carboxamide] | 158 | 420
CC(C)(C)NC(=O)c1cc(NC(=O)Cc2cc(Cl)c(CN3CCC(F)(F)C3)cc2O)ccn1 [Example 27.3, N-tert-Butyl-4-[[2-[5-chloro-4-[(3,3-difluoropyrrolidin-1-yl)methyl]-2-hydroxy-phenyl]acetyl]amino]pyridine-2-carboxamide] | 166 | 290
C[C@](C#N)(CO)NC(=O)c1cc(NC(=O)Cc2cc(Cl)ccc2O)ccn1 (single isomer, unassigned) [Example 46a, 4-[[2-(5-Chloro-2-hydroxy-phenyl)acetyl]amino]-N-[(1S)-1-cyano-2-hydroxy-1-methyl-ethyl]pyridine-2-carboxamide or 4-[[2-(5-chloro-2-hydroxy-phenyl)acetyl]amino]-N-[(1R)-1-cyano-2-hydroxy-1-methyl-ethyl]pyridine-2-carboxamide] | 249 | 110
O=C(Cc1cc(Cl)ccc1O)Nc1ccnc(C(=O)NCCCc2ccccc2)c1 [Example 35.10, 4-[[2-(5-Chloro-2-hydroxy-phenyl)acetyl]amino]-N-(3-phenylpropyl)pyridine-2-carboxamide] | 223 | 280
CC(C)(C)NC(=O)c1cccc(NC(=O)Cc2c(O)ccc(F)c2F)c1 [Example 2.11, N-tert-Butyl-3-[[2-(2,3-difluoro-6-hydroxy-phenyl)acetyl]amino] benzamide] | 126 | 430
O=C(Cc1cc(Cl)ccc1O)Nc1ccnc(C(=O)NC2CCCCC2)c1 [Example 1.10, 4-[[2-(5-Chloro-2-hydroxy-phenyl)acetyl]amino]-N-cyclohexyl-pyridine-2-carboxamide] | 200 | 80
COCC(C)(CO)NC(=O)c1cc(NC(=O)Cc2cc(Cl)ccc2O)ccn1 (centres unmarked) [Example 73, 4-[[2-(5-Chloro-2-hydroxy-phenyl)acetyl]amino]-N-[1-(hydroxymethyl)-2-methoxy-1-methyl-ethyl]pyridine-2-carboxamide] | 196 | 310
CC(C)(C)c1ccc(CC(=O)Nc2ccnc(C(=O)N[C@H]3CCC[C@@H]3O)c2)cc1O [Example 93.2, 4-[2-(4-tert-butyl-3-hydroxyphenyl)acetamido]-N-[(1S,2S)-2-hydroxycyclopentyl]pyridine-2-carboxamide] | 220 | 40
O=C(Cc1cc(Cl)ccc1O)Nc1ccnc(C(=O)NCc2cccnc2)c1 [Example 32.2, 4-[[2-(5-Chloro-2-hydroxy-phenyl)acetyl]amino]-N-(3-pyridylmethyl)pyridine-2-carboxamide] | 183 | 340
O=C(Cc1cc(Cl)ccc1O)Nc1ccnc(C(=O)NC23CCC(F)(C2)C3)c1 [Example 44, 4-[[2-(5-Chloro-2-hydroxy-phenyl)acetyl]amino]-N-(4-fluoro-1-bicyclo[2.1.1]hexanyl)pyridine-2-carboxamide] | 377 | 50
Cc1[nH]c2c(F)cccc2c1CC(=O)Nc1cccc(C(=O)NC(C)(C)C)c1 [Example 4.4, N-tert-Butyl-3-[[2-(7-fluoro-2-methyl-1H-indol-3-yl)acetyl]amino]benzamide] | 61 | 4190
CC(C#N)(CO)NC(=O)c1cc(NC(=O)Cc2ccccc2F)ccn1 (centres unmarked) [Example 60.1, N-(1-Cyano-2-hydroxy-1-methyl-ethyl)-4-[[2-(2-fluorophenyl)acetyl]amino]pyridine-2-carboxamide] | 60 | 
CC(C)(C)NC(=O)c1cc(NC(=O)C2CCc3c(Cl)ccc(O)c32)ccn1 (single isomer, unassigned) [Example 57b, N-tert-butyl-4-[[(1S) or (1R)-4-chloro-7-hydroxy-indane-1-carbonyl]amino]pyridine-2-carboxamide] | 162 | 670
O=C(Cc1ccccc1Cl)Nc1ccnc(C(=O)NC23CC(F)(C2)C3)c1 [Example 30.9, 4-[[2-(2-Chlorophenyl)acetyl]amino]-N-(3-fluoro-1-bicyclo[1.1.1]pentanyl)pyridine-2-carboxamide] | 100 | 470
O=C(Cc1cc(Cl)ccc1O)Nc1ccnc(C(=O)NC2(CO)COC2)c1 [Example 35.26, 4-[[2-(5-Chloro-2-hydroxy-phenyl)acetyl]amino]-N-[3-(hydroxymethyl)oxetan-3-yl]pyridine-2-carboxamide] | 157 | 
CC(C)(C)NC(=O)c1cc(NC(=O)Cc2cccc(CC#N)c2)ccn1 [Example 68, N-tert-Butyl-4-[[2-[3-(cyanomethyl)phenyl]acetyl]amino]pyridine-2-carboxamide] | 39 | 
N#CC1(NC(=O)c2cc(NC(=O)Cc3cc(Cl)ccc3O)ccn2)CCOCC1 [Example 31, 4-[[2-(5-Chloro-2-hydroxy-phenyl)acetyl]amino]-N-(4-cyanotetrahydropyran-4-yl)pyridine-2-carboxamide] | 223 | 120

SMILES | % Potentiation @ 3.33 μM Avg [%] | EC50 [nM]
CC(C)(CCO)NC(=O)c1cc(NC(=O)Cc2cc(Cl)ccc2O)ccn1 [Example 35.14, 4-[[2-(5-Chloro-2-hydroxy-phenyl)acetyl]amino]-N-(3-hydroxy-1,1-dimethyl-propyl)pyridine-2-carboxamide] | 172 | 270
CC(C)(C#N)NC(=O)c1cc(NC(=O)C2CCCCC2)ccn1 [Example 83.2, N-(1-Cyano-1-methyl-ethyl)-4-(cyclohexanecarbonylamino)pyridine-2-carboxamide] | 41 | 
CC(C)(C)C1CCC(NC(=O)c2cc(NC(=O)Cc3cc(Cl)ccc3O)ccn2)CC1 (centres unmarked) [Example 39, N-(4-tert-Butylcyclohexyl)-4-[[2-(5-chloro-2-hydroxy-phenyl)acetyl]amino]pyridine-2-carboxamide] | 262 | 60
CC(C)NC(=O)c1cc(NC(=O)Cc2cc(F)ccc2O)ccn1 [Example 81.2, 4-[[2-(5-Fluoro-2-hydroxy-phenyl)acetyl]amino]-N-isopropyl-pyridine-2-carboxamide] | 103 | 420
Cc1nn(-c2ccccc2)cc1C(=O)Nc1ccnc(C(=O)NC(C)(C)C#N)c1 [Example 83.24, N-(1-Cyano-1-methyl-ethyl)-4-[(3-methyl-1-phenyl-pyrazole-4-carbonyl)amino]pyridine-2-carboxamide] | 55 | 
CCC(C)NC(=O)c1cc(NC(=O)Cc2cc(Cl)ccc2O)ccn1 (centres unmarked) [Example 7.13, 4-[[2-(5-Chloro-2-hydroxy-phenyl)acetyl]amino]-N-sec-butyl-pyridine-2-carboxamide] | 212 | 90
CC(C)(C#N)NC(=O)c1cc(NC(=O)CC2CCCCC2)ccn1 [Example 83.1, N-(1-Cyano-1-methyl-ethyl)-4-[(2-cyclohexylacetyl)amino]pyridine-2-carboxamide] | 159 | 
Cc1cc(NC(=O)Cc2cc(Cl)ccc2O)cc(C(=O)NC(C)(C)C)c1 [Example 9.1, N-tert-Butyl-3-[[2-(5-chloro-2-hydroxy-phenyl)acetyl]amino]-5-methyl-benzamide] | 77 | 4620
COc1cc(C(F)(F)F)ccc1CC(=O)Nc1cccc(C(=O)NC(C)(C)C)c1 [Example 4.9, N-tert-Butyl-3-[[2-[2-methoxy-4-(trifluoromethyl)phenyl]acetyl]amino]benzamide] | 60 | 4660
CC(C)(C)NC(=O)c1cc(NC(=O)Cc2ccc(C(C)(C)C)cc2O)ccn1 [Example 90, N-tert-Butyl-4-[[2-(4-tert-butyl-2-hydroxy-phenyl)acetyl]amino]pyridine-2-carboxamide] | 219 | 120
O=C(Cc1cc(Cl)ccc1O)Nc1cccc(C(=O)NC23CC4CC(CC(C4)C2)C3)c1 [Example 1.2, N-(1-Adamantyl)-3-[[2-(5-chloro-2-hydroxy-phenyl)acetyl]amino]benzamide] | 170 | 540
Cc1ccccc1CC(=O)Nc1ccnc(C(=O)NC(C)(C)C)c1 [Example 5.7, N-tert-Butyl-4-[[2-(o-tolyl)acetyl]amino]pyridine-2-carboxamide] | 131 | 1230
CC(C)(C)c1ccc(O)c(CC(=O)Nc2ccnc(C(=O)NC3(C#N)CCOCC3)c2)c1 [Example 25.1, 4-[[2-(5-tert-Butyl-2-hydroxy-phenyl)acetyl]amino]-N-(4-cyanotetrahydropyran-4-yl)pyridine-2-carboxamide] | 393 | 140
O=C(Cc1cc(Cl)ccc1O)Nc1ccnc(C(=O)NC23CC4CC(CC(C4)C2)C3)c1 [Example 1.3, N-(1-Adamantyl)-4-[[2-(5-chloro-2-hydroxy-phenyl)acetyl]amino]pyridine-2-carboxamide] | 233 | 240
CC(C)(NC(=O)c1cc(NC(=O)Cc2ccccc2Cl)ccn1)C1CC1 [Example 30.3, 4-[[2-(2-Chlorophenyl)acetyl]amino]-N-(1-cyclopropyl-1-methyl-ethyl)pyridine-2-carboxamide] | 100 | 250
CC(C)(C)NC(=O)c1cc(NC(=O)Cc2cc(CCCO)ccc2O)ccn1 [Example 75, N-tert-Butyl-4-[[2-[2-hydroxy-5-(3-hydroxypropyl)phenyl]acetyl]amino]pyridine-2-carboxamide] | 34 | 
